Results reported in patent publication US20210369738A1, “PRODUCTION METHOD OF TELOMERASE ACTIVATORS AND TELOMERASE ACTIVATORS OBTAINED BY THIS METHOD” (IZMIR YUKSEK TEKNOLOJI ENSTITUSU, priority 2017, published 2021).

Legend:
[1] = as a telomerase activator; cited from earlier work
telomerase enzyme = target: T1, telomerase enzyme (Homo sapiens, UniProt O14746); experiment: Telomerase activation, TELOTAGGG PCR ELISAPLUS kit, HEKn cells; assay type: cell-based; conditions: 24-hour incubation
T1 construct: host or cells: HEKn (human primary epidermal keratinocytes)
T1 sequence (O14746 whole entry): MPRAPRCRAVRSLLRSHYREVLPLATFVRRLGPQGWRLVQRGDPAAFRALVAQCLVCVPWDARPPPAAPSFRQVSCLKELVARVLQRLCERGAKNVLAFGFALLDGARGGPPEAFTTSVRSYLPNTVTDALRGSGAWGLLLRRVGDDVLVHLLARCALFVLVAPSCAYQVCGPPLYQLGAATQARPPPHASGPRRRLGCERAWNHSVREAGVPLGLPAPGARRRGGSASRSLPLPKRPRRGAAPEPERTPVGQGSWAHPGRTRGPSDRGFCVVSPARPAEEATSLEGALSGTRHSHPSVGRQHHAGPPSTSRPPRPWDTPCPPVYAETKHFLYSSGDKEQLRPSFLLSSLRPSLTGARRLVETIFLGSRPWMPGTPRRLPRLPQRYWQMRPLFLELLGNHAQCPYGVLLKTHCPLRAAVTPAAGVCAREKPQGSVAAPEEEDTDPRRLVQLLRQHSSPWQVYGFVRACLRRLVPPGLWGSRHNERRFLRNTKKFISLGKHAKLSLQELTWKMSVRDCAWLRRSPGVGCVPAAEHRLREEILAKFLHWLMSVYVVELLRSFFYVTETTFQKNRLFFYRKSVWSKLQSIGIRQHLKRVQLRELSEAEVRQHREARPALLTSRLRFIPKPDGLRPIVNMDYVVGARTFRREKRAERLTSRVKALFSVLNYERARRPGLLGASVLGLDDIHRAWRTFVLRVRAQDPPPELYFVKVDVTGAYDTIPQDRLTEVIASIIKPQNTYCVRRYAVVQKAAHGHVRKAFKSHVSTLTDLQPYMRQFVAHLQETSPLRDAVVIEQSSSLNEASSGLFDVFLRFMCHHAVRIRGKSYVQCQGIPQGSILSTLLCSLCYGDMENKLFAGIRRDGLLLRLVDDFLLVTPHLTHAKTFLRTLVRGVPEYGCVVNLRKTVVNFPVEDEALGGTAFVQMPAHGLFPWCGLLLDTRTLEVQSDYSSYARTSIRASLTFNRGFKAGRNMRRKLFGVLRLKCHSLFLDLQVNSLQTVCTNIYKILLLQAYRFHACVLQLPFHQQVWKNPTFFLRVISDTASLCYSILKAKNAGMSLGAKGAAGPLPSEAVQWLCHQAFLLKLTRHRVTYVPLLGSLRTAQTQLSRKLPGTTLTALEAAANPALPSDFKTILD
Method: Telomerase activation tests were performed on selected molecules as follows; For culturing HEKn (Human Primer Epidermal Keratinocyte, ATCC; PCS-200-010) cells, the cell medium containing the components given in Table 2 is prepared and the cells are grown in the Dermal Cell Basal medium (PCS-200-030) supplemented with components in 5% CO2 environment at 37° C.
Telomerase activation was performed using the TELOTAGGG PCR ELISAPLUS kit (Roche; 12013789001, 16× version), a highly sensitive and quantitative method, according to the manufacturer's protocol, as follows:
After application of the selected molecules to HEKn cell lines at the defined dose interval and completion of 24-hour incubation, cells are collected and counted by hemocytometer. 2×10^5 cells are transferred to clean microcentrifuge tubes and then centrifuged at 3000×g for 5 min (at 4° C.). The supernatant is removed and the cells in the pellet are suspended with 200 μl of lysis buffer (Solution 1) and incubated on ice for 30 min. After incubation the lysates are centrifuged at 16,000×g for 20 min (at 4° C.) and the cooled supernatant is transferred to clean microcentrifuge tubes.
PCR is designed for sample group and control group. 25 μl reaction mixture (Solution 2) and 5 μl internal standard solution (Solution 3) are transferred to the PCR tubes for both the positive and negative sample as well as for the sample to be investigated for activation or the prepared master mixture is taken to a 30 μl PCR tube to contain this content. For the samples to be tested, 2 μl of each PCR sample is added from the cell lysate. For the control group, 1 μl of the low or high concentration TS8 control sample (Solution 4 or 5) is transferred to a separate PCR tube. From the lysis buffer (Solution 1), 1 μl is transferred to a separate PCR tube.
For each sample, 10 μl of the denaturing agent (Solution 7) is added to the nuclease-free 96-well plate. 2.5 μl of the amplified product is transferred to the plate and incubated for 10 min at +15 and +25° C. 100 μL Hybridization Buffer T (Solution 8) is added to a portion of the samples, 100 μL Hybridization Buffer IS (Solution 9) is added to the other portion. After homogenization, 100 μl of the reaction mixture is transferred to the MP module coated with streptavidin and the MP module is carefully closed with the special coating paper. After completion of the transfer process, the MP module is shaken at 300 rpm for 2 hours at 37° C. After incubation, the hybridization solutions are removed. Each well is washed 3 times with 250 μl of 1× wash buffer (Solution 10). The prepared anti-DIG-HRP working solution (Solution 11) is added to each of the wells. The MP module is sealed with special coating paper and incubated for 30 min at 15-25° C. with shaking at 300 rpm and the solution is carefully removed from the wells. Each well is washed 5 times in 1× wash buffer (Solution 10). From room temperature TMB substrate solution (Solution 13), 100 μl is added to each well. The MP module is covered with special coating paper and incubated at 15-25° C. for 10-20 minutes at 300 rpm with shaking. The color change is terminated by adding the post-incubation termination agent (Solution 14). The samples are measured at […] in a microplate reader for 30 min. Compounds showing telomerase activation in the 1.5-fold and higher levels according to DMSO used as a negative control were considered active.

Structure (SMILES) | Fold increase over negative control (DMSO) (telomerase enzyme; 30 nM) | Fold increase over negative control (DMSO) (telomerase enzyme; 100 nM) | Fold increase over negative control (DMSO) (telomerase enzyme; 300 nM) | Fold increase over negative control (DMSO) (telomerase enzyme; 1000 nM) | Fold increase over negative control (DMSO) (telomerase enzyme; 2 nM) | Fold increase over negative control (DMSO) (telomerase enzyme; 10 nM) | Fold increase over negative control (DMSO) (telomerase enzyme; 50 nM) | Fold increase over negative control (DMSO) (telomerase enzyme; 0.5 nM) | Fold increase over negative control (DMSO) (telomerase enzyme; 0.1 nM) | bioavailability [1]
CC(C)(O)[C@@H]1CC[C@](C)([C@H]2[C@@H](O)C[C@@]3(C)C4C[C@H](O)C5C(C)(C)[C@@H](O)CC[C@@]56C[C@@]46CC[C@]23C)O1 (some centres unmarked) [Cycloastragenol] | – | – | – | – | – | – | – | – | – | 5%
CC1(C)C(=O)C[C@H](O)[C@]23C[C@]24CC[C@]2(C)[C@@H]([C@@]5(C)CC[C@@H](C(C)(C)O)O5)[C@@H](O)C[C@@]2(C)C4C[C@H](O)C13 (some centres unmarked) [Molecule 1] | 1.73 fold | 0.72 fold | 0.74 fold | 1.2 fold | – | – | – | – | – | –
CC1(C)C(=O)CC[C@]23C[C@]24CC[C@]2(C)[C@@H]([C@@]5(C)CC[C@@H](C(C)(C)O)O5)[C@@H](O)C[C@@]2(CO)C4C[C@H](O)C13 (some centres unmarked) [Molecule 3] | 2.36 fold | 0.78 fold | 1.24 fold | 1.07 fold | – | – | – | – | – | –
CC(C)(O)[C@@H]1CC[C@](C)([C@H]2[C@@H](O)C[C@@]3(C)C4C[C@H](O)[C@@H](C(C)(C)O)[C@@]5(CCC(=O)O)C[C@@]45CC[C@]23C)O1 (some centres unmarked) [Molecule 11] | 3.17 fold | – | – | – | 1.9 fold | 1.73 fold | – | 2.08 fold | – | –
CC(C)(O)[C@@H]1CC[C@](C)([C@H]2[C@@H](O)C[C@@]3(C)C4C[C@H](O)C5C(C)(C)[C@@H](O)CC[C@]5(C)C4=C[C@@H](O)[C@]23C)O1 (some centres unmarked) [Molecule 14] | – | – | 0.53 fold | – | 2.53 fold | 1.62 fold | 1.6 fold | – | – | –
CC1(C)C(=O)CC[C@]2(C)C3=CC[C@]4(C)[C@@H]([C@@]5(C)CC[C@@H](C(C)(C)O)O5)[C@@H](O)C[C@@]4(C)C3C[C@H](O)C12 (some centres unmarked) [Molecule 21] | 1.18 fold | – | – | – | 1.43 fold | 1.04 fold | – | 9.25 fold | – | –

Continued, in another order:

Fold increase over negative control (DMSO) (telomerase enzyme; 30 nM) | Fold increase over negative control (DMSO) (telomerase enzyme; 100 nM) | Fold increase over negative control (DMSO) (telomerase enzyme; 300 nM) | Fold increase over negative control (DMSO) (telomerase enzyme; 1000 nM) | Fold increase over negative control (DMSO) (telomerase enzyme; 2 nM) | Fold increase over negative control (DMSO) (telomerase enzyme; 10 nM) | Fold increase over negative control (DMSO) (telomerase enzyme; 50 nM) | Fold increase over negative control (DMSO) (telomerase enzyme; 0.5 nM) | Fold increase over negative control (DMSO) (telomerase enzyme; 0.1 nM) | Structure (SMILES) | bioavailability [1]
– | – | 2.13 fold | – | 2.13 fold | 2.22 fold | 2.4 fold | – | – | CC(C)(O)[C@@H]1CC[C@](C)([C@H]2[C@@H](O)C[C@@]3(C)C4C[C@H](O)C5C(C)(C)[C@@H](O)CC[C@@]56C[C@@]46C[C@@H](O)[C@]23C)O1 (some centres unmarked) [Molecule 4] | –
2.37 fold | – | – | – | 10 fold | 6.38 fold | – | 9.23 fold | – | CC(C)(O)[C@@H]1CC[C@](C)([C@H]2[C@@H](O)C[C@@]3(C)C4C[C@H](O)C5C(C)(C)[C@@H](O)CC[C@@]56C[C@@]46C[C@H](O)[C@]23C)O1 (some centres unmarked) [Molecule 6] | –
4.6 fold | – | – | – | 9.35 fold | 9.95 fold | – | 8.43 fold | – | CC1(C)OC(=O)CC[C@]23C[C@]24CC[C@]2(C)[C@@H]([C@@]5(C)CC[C@@H](C(C)(C)O)O5)[C@@H](O)C[C@@]2(C)C4C[C@H](O)C13 (some centres unmarked) [Molecule 10] | –
0.84 fold | – | – | – | 2.14 fold | 1.78 fold | – | 4.65 fold | – | CC1(C)C(=O)CC[C@]23C[C@]24CC[C@]2(C)[C@@H]([C@@]5(C)CC[C@@H](C(C)(C)O)O5)[C@@H](O)C[C@@]2(C)C4C[C@H](O)C13 (some centres unmarked) [Molecule 12] | –
– | – | – | – | 2.78 fold | 0.95 fold | – | 2.31 fold | 0.98 fold | CC(C)(O)[C@@H]1CC[C@](C)([C@H]2[C@@H](O)C[C@@]3(C)C4C[C@H](O)C5C(C)(C)[C@@H](O)CC[C@]5(C)C4=C[C@H](O)[C@]23C)O1 (some centres unmarked) [Molecule 16] | –
– | – | – | – | 1.33 fold | 1 fold | 1.57 fold | 0.42 fold | – | CC(C)(O)[C@@H]1CC[C@](C)([C@H]2[C@@H](O)C[C@@]3(C)C4C[C@H](O)C5C(C)(C)[C@@H](O)CC[C@]5(C)C4=CC(=O)[C@]23C)O1 (some centres unmarked) [Molecule 17] | –
1.93 fold | – | – | – | 1.24 fold | 11.32 fold | – | 2.65 fold | – | CC(C)(O)[C@@H]1CC[C@](C)([C@H]2[C@@H](O)C[C@@]3(C)C4C[C@H](O)[C@@H](C(C)(C)O)[C@](C)(CCC(=O)O)C4=CC[C@]23C)O1 (some centres unmarked) [Molecule 19] | –
7.86 fold | – | – | – | 5.23 fold | 6.04 fold | – | 9.01 fold | – | C=C(C)[C@@H]1[C@@H](O)CC2C(=CC[C@]3(C)[C@@H]([C@@]4(C)CC[C@@H](C(C)(C)O)O4)[C@@H](O)C[C@@]23C)[C@@]1(C)CCC(=O)O (some centres unmarked) [Molecule 20] | –
